pIC50: −log10 of the molar value.
Columns and labels:
[1] = Antiproliferative activity against mouse KC-0116 cells assessed as inhibition of cell growth incubated for 72 hrs by MTT assay; type: functional, cell-based; conditions: KC-0116, 72 h
[2] = Antiproliferative activity against mouse KC-0122 cells assessed as inhibition of cell growth incubated for 72 hrs by MTT assay; type: functional, cell-based; conditions: KC-0122, 72 h
[3] = target: Epidermal growth factor receptor (Mus musculus) (UniProt Q01279); assay: Inhibition of EGFR in mouse KC-0116 cells assessed as downregulation of ERK protein expression level incubated for 24 hrs by Western blotting analysis; type: cell-based
Epidermal growth factor receptor (Mus musculus), sequence (Q01279 whole entry): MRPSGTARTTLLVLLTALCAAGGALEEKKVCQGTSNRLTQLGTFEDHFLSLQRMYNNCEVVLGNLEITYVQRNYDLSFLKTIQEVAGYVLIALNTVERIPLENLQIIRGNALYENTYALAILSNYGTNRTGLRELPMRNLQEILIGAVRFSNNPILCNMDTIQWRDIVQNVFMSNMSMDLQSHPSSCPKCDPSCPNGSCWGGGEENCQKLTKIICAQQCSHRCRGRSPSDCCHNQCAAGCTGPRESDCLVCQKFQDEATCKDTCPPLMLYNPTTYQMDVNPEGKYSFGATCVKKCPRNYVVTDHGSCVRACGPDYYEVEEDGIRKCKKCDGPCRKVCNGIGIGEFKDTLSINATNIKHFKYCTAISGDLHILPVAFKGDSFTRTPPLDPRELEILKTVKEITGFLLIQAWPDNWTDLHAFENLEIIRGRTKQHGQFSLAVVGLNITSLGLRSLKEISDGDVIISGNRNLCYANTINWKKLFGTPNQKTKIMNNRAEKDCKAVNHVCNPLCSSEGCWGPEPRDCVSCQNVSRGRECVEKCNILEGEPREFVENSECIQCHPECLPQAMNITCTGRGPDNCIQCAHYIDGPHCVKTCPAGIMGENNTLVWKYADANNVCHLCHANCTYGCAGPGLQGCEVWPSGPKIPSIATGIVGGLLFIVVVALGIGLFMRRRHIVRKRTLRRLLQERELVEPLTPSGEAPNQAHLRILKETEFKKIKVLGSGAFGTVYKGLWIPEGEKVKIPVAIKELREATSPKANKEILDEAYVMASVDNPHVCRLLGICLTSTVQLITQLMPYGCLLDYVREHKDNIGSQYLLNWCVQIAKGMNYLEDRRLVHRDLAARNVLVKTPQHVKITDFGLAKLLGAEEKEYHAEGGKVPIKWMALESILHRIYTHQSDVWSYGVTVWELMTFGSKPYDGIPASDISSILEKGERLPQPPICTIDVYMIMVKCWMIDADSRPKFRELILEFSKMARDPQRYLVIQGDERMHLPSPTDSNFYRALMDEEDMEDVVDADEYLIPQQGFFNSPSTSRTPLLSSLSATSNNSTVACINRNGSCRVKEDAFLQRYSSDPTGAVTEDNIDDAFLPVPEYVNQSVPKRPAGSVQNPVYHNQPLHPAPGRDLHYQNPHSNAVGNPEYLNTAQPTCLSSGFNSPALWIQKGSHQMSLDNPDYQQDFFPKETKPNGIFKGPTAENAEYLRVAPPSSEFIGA

[4] = target: Epidermal growth factor receptor (Mus musculus) (UniProt Q01279); assay: Inhibition of EGFR in mouse KC-0116 cells assessed as downregulation of AKT protein expression level incubated for 24 hrs by Western blotting analysis; type: cell-based
[5] = target: Epidermal growth factor receptor (Mus musculus) (UniProt Q01279); assay: Inhibition of EGFR in mouse KC-0122 cells assessed as downregulation of EGFR phosphorylation level incubated for 24 hrs by Western blotting analysis; type: cell-based
HepG2 = assay: Antiproliferative activity against human HepG2 cells harboring VEGFR assessed as inhibition of cell growth incubated for 72 hrs by MTT assay; type: functional, cell-based; conditions: HepG2, 72 h
[6] = target: Epidermal growth factor receptor (Mus musculus) (UniProt Q01279); assay: Inhibition of EGFR in mouse KC-0122 cells assessed as downregulation of AKT protein expression level incubated for 24 hrs by Western blotting analysis; type: cell-based
[7] = target: Epidermal growth factor receptor (Mus musculus) (UniProt Q01279); assay: Inhibition of EGFR in mouse KC-0116 cells assessed as downregulation of EGFR phosphorylation level incubated for 24 hrs by Western blotting analysis; type: cell-based
A-431 = assay: Antiproliferative activity against human A-431 cells harboring wild type EGFR assessed as inhibition of cell growth incubated for 72 hrs by MTT assay; type: functional, cell-based; conditions: A-431, 72 h
[8] = target: Epidermal growth factor receptor (Mus musculus) (UniProt Q01279); assay: Inhibition of EGFR in mouse KC-0122 cells assessed as downregulation of ERK protein expression level incubated for 24 hrs by Western blotting analysis; type: cell-based
NCI-H1975 = assay: Antiproliferative activity against human NCI-H1975 cells harboring EGFR L858R/T790M mutant assessed as inhibition of cell growth incubated for 72 hrs by MTT assay; type: functional, cell-based; conditions: NCI-H1975, 72 h
HCC827 = assay: Antiproliferative activity against human HCC827 cells harboring EGFR Del19 mutant assessed as inhibition of cell growth incubated for 72 hrs by MTT assay; type: functional, cell-based; conditions: HCC827, 72 h
[9] = Induction of apoptosis in mouse KC-0116 cells assessed as viable cells at 0.3 uM incubated for 48 hrs by annexin V-FITC/ PI staining based flow cytometry (reference value: 93.27 %); type: functional
[10] = Induction of apoptosis in mouse KC-0116 cells assessed as necrotic cells at 1 uM incubated for 48 hrs by annexin V-FITC/ PI staining based flow cytometry (reference value: 0.04 %); type: functional
[11] = Induction of apoptosis in mouse KC-0116 cells assessed as late apoptotic cells at 1 uM incubated for 48 hrs by annexin V-FITC/ PI staining based flow cytometry (reference value: 1 %); type: functional
[12] = Induction of apoptosis in mouse KC-0116 cells assessed as early apoptotic cells at 0.3 uM incubated for 48 hrs by annexin V-FITC/ PI staining based flow cytometry (reference value: 8.09 %); type: functional
[13] = Induction of apoptosis in mouse KC-0116 cells assessed as necrotic cells at 0.3 uM incubated for 48 hrs by annexin V-FITC/ PI staining based flow cytometry (reference value: 0.04 %); type: functional
[14] = Induction of apoptosis in mouse KC-0116 cells assessed as viable cells at 1 uM incubated for 48 hrs by annexin V-FITC/ PI staining based flow cytometry (reference value: 93.27 %); type: functional
[15] = Induction of apoptosis in mouse KC-0116 cells assessed as early apoptotic cells at 1 uM incubated for 48 hrs by annexin V-FITC/ PI staining based flow cytometry (reference value: 8.09 %); type: functional
[16] = Induction of apoptosis in mouse KC-0116 cells assessed as late apoptotic cells at 0.3 uM incubated for 48 hrs by annexin V-FITC/ PI staining based flow cytometry (reference value: 1 %); type: functional
[17] = Toxicity in BALB/c mouse xenografted with mouse KC-0116 cells assessed as change in body weight at 10 mg/kg,po administrated once daily for 10 days; type: organism-based; conditions: in vivo, 240 h, time 10 day

| SMILES | pIC50 [1] | pIC50 [2] | also measured |
| --- | --- | --- | --- |
| COc1cc(N(C)CCN(C)C)c(NC(=O)CN)cc1Nc1nccc(-c2cn(C)c3ccccc23)n1 | 5.88 | 5.57 |  |
| Cn1cc(-c2ccnc(Nc3cccc(NS(=O)(=O)C4CC4)c3)n2)c2ccccc21 | 6.24 | 5.92 |  |
| CN(C)C1CCN(c2ccc(Nc3nccc(-c4cn(C)c5ccccc45)n3)cc2NC(=O)CN)CC1 | 6.36 | 6.34 |  |
| COc1cc(OCCN(C)C)c(NC(=O)CN)cc1Nc1nccc(-c2cn(C)c3ccccc23)n1 | 5.82 | 5.26 |  |
| CN(C)C1CCN(c2ccc(Nc3nccc(-c4cn(C)c5ccccc45)n3)cc2)CC1 | 6.40 | 6.35 |  |
| COc1cc(N(C)CCN(C)C)c(NC(=O)CO)cc1Nc1nccc(-c2cn(C)c3ccccc23)n1 | 5.86 | 5.51 |  |
| CN1CCN(C2CCN(c3ccc(Nc4nccc(-c5cn(C)c6ccccc56)n4)cc3NS(=O)(=O)C3CC3)CC2)CC1 | 6.77 | 6.70 | inhibition [3]: Dose-Dependent Effect; inhibition [4]: Dose-Dependent Effect; inhibition [5]: Dose-Dependent Effect; pIC50 (HepG2): 5.82; inhibition [6]: Dose-Dependent Effect; inhibition [7]: Dose-Dependent Effect; pIC50 (A-431): 5.67; inhibition [8]: Dose-Dependent Effect; pIC50 (NCI-H1975): 5.99; pIC50 (HCC827): 6.51 |
| Cn1cc(-c2ccnc(Nc3ccc(N4CCOCC4)cc3)n2)c2ccccc21 | 5.15 | < 5.00 |  |
| COc1cc(N(C)CCN(C)C)c(NC(=O)CNC(=O)OC(C)(C)C)cc1Nc1nccc(-c2cn(C)c3ccccc23)n1 | 5.89 | 5.89 |  |
| COc1cc(N2CCC(N3CCN(C)CC3)CC2)ccc1Nc1ncc(Cl)c(Nc2ccccc2P(C)(C)=O)n1 [BRIGATINIB] | 6.46 | 6.35 | Activity [9]: 92.51%; Activity [10]: 0.32%; Activity [11]: 7.32%; Activity [12]: 6.75%; Activity [13]: 0.01%; Activity [14]: 65.74%; Activity [15]: 26.61%; Activity [16]: 1.71%; Activity [17]: Non-Toxic |
| COc1cc(N(C)CCN(C)C)c(NC(=O)CNC(C)=O)cc1Nc1nccc(-c2cn(C)c3ccccc23)n1 | 5.70 | 5.84 |  |
| CN(C)CCOc1ccc(Nc2nccc(-c3cn(C)c4ccccc34)n2)cc1 | 5.89 | 5.76 |  |
| CC(=O)N1CCN(c2ccc(Nc3nccc(-c4cn(C)c5ccccc45)n3)cc2)CC1 | 5.98 | 5.82 |  |
| COc1ccc(NC(=O)CCN)cc1Nc1nccc(-c2cn(C)c3ccccc23)n1 | 5.84 | 5.91 |  |
| COc1cc(N2CCN(C)CC2)c(NC(=O)CN)cc1Nc1nccc(-c2cn(C)c3ccccc23)n1 | 5.78 | 5.93 |  |
| COc1cc(N(C)CCN(C)C)c(NC(=O)CCN)cc1Nc1nccc(-c2cn(C)c3ccccc23)n1 | 5.83 | 5.79 |  |
| COc1cc(N2CCC(N3CCN(C)CC3)CC2)ccc1Nc1nccc(-c2cn(C)c3ccccc23)n1 | 5.93 | 5.86 |  |

| SMILES | pIC50 [1] | pIC50 [2] | also measured |
| --- | --- | --- | --- |
| CN1CCN(C2CCN(c3ccc(Nc4nccc(-c5cn(C)c6ccccc56)n4)cc3)CC2)CC1 | 6.08 | 5.88 |  |
| COc1cc(N(C)CCN(C)C)c(NC(=O)CNS(C)(=O)=O)cc1Nc1nccc(-c2cn(C)c3ccccc23)n1 | 5.81 | 5.93 |  |
| CN(C)C1CCN(c2ccc(Nc3nccc(-c4cn(C)c5ccccc45)n3)cc2NS(=O)(=O)C2CC2)CC1 | 6.62 | 6.60 | pIC50 (HepG2): 5.72; pIC50 (A-431): 5.60; pIC50 (NCI-H1975): 5.85; pIC50 (HCC827): 6.66 |
| Cn1cc(-c2ccnc(Nc3ccc(N4CCC(N5CCOCC5)CC4)cc3)n2)c2ccccc21 | 5.77 | 5.24 |  |
| CN(C)C1CCN(c2ccc(Nc3nccc(-n4cc(NC(=O)c5ccccc5)cn4)n3)cc2NS(C)(=O)=O)CC1 | 6.28 | 6.31 |  |
| CN(C)CCN(C)c1ccc(Nc2nccc(-c3cn(C)c4ccccc34)n2)cc1 | 5.97 | 5.81 |  |
| COc1cc(N2CCC(N(C)C)CC2)c(NC(=O)CO)cc1Nc1nccc(-c2cn(C)c3ccccc23)n1 | 6.34 | 6.32 |  |
| COc1cc2c(cc1Nc1nccc(-c3cn(C)c4ccccc34)n1)NC(=O)CCCCCN2CCN(C)C | 5.63 | 5.55 |  |
| CN1CCN(c2ccc(Nc3nccc(-c4cn(C)c5ccccc45)n3)cc2)CC1 | 6.42 | 6.27 |  |
| COCC(=O)Nc1cc(Nc2nccc(-c3cn(C)c4ccccc34)n2)c(OC)cc1N1CCC(N(C)C)CC1 | 6.34 | 6.35 |  |
| COc1cc(N(C)CCN(C)C)ccc1Nc1nccc(-c2cn(C)c3ccccc23)n1 | 5.75 | 5.79 |  |
| Cn1cc(-c2ccnc(Nc3ccc(N4CCCCC4)cc3)n2)c2ccccc21 | < 5.00 | < 5.00 |  |
| COc1ccc(NC(=O)CN)cc1Nc1nccc(-c2cn(C)c3ccccc23)n1 | 5.42 | 5.28 |  |
| Cn1cc(-c2ccnc(Nc3cccc(NC(=O)CCN)c3)n2)c2ccccc21 | 5.30 | 5.32 |  |
| CN(C)CCN(c1ccc(Nc2nccc(-c3cn(C)c4ccccc34)n2)cc1)S(C)(=O)=O | 6.37 | 6.30 |  |
| C=CC(=O)Nc1cc(Nc2nccc(-c3cn(C)c4ccccc34)n2)c(OC)cc1N(C)CCN(C)C [OSIMERTINIB] | […] |  | pIC50 (HepG2): 5.51; pIC50 (A-431): […]; pIC50 (HCC827): 9.00 |
